Values of other authors in patent US20240238347A1, “PHOTORECEPTOR CELLS FOR RETINAL AND MACULAR REPAIR” (The Johns Hopkins University, priority 2021, published 2024).
Like-named read-outs stand apart in the source and are kept apart here.

Assays:
[1] = test system: ESC- and iPSC-derived organoids
Thrβ mutant organoids = details: Thrβ KO+T3; early T3 addition
[2] = test system: WERI-Rb1 retinoblastoma cells; details: retinoblastoma cell line treated with T3
[3] = wild type+T3, 20 nM T3 starting from days 20 to 50 until day 200 of differentiation
[4] = 'Early RA': 1.0 μM RA from days 43 to 130
[5] = 'Late RA': 1.0 μM RA from days 130 to 200

Row | SMILES | cone density ([1]; early T3 addition in organoids) | L/M cones (L/M-opsin expressing), share of cones [1, 3] | S cones (S-opsin expressing), share of cones [1, 3] | L/M cones, share of cones (Thrβ mutant organoids) | S cones, share of cones (Thrβ mutant organoids) | L/M-opsin expression [2] | L cones at day 200 (human retinal organoids; [4]) | M cones at day 200 (human retinal organoids; [4]) | co-expressing cones at day 200 (human retinal organoids; [4]) | L cones at day 200 (human retinal organoids; [5]) | M cones at day 200 (human retinal organoids; [5]) | co-expressing cones at day 200 (human retinal organoids; [5]) | M-opsin and L-opsin expression (RNA-seq) (human retinal organoids; ESC-derived organoids grown in 'Early RA' conditions) | overall M/L cone densities at day 200 (human retinal organoids; across experimental conditions (No RA, Early RA, Late RA)) | M-opsin expression (previously published RNA-seq data) (human retinal organoids; iPSC-derived organoids grown in 'Early RA' conditions) | organoid differentiation / M or L cone yield (human retinal organoids; supplemental RA throughout development (N=6))
1 | N[C@@H](Cc1cc(I)c(Oc2ccc(O)c(I)c2)c(I)c1)C(=O)O [T3, triiodothyronine] | dramatically increased cone density | 96% | 4% | 0% | 100% | expresses L/M-opsin |  |  |  |  |  |  |  |  |  | 
2 | CC1=C(/C=C/C(C)=C/C=C/C(C)=C/C(=O)O)C(C)(C)CCC1 [RA, all-trans retinoic acid] |  |  |  |  |  |  | 1.65% | 98.35% | 0% | 92.56% | 6.35% | 1.10% | high M-opsin and minimal L-opsin expression | no significant differences | near exclusive expression of M-opsin | failed to differentiate, yielding minimal M or L cones
